Results taken from the supplement of paper PMC8612539.
≈ marks a conversion by molar mass, not a printed value.

System: Histophilus somni
Assay: minimum inhibitory concentration (MIC)
Method: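 Broth microdilution MIC (Sensititre BOPO7F bovine plate, CLSI methods) of 19 antimicrobials against field isolates of P. multocida, M. haemolytica, H. somni (deep nasopharyngeal swabs) and E. coli, Enterococcus spp. (rectal swabs) from weaned dairy heifers. Incubation 16-24 h at 35 C. MIC is the lowest concentration preventing visible growth. Values with <= or > lie at the tested range limits. Trimethoprim-sulfamethoxazole is given as the trimethoprim component of a 1:19 mixture.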

SMILES: CCCN1C[C@H](C)[C@@H](O)[C@](C)(O)[C@@H](CC)OC(=O)[C@H](C)[C@@H](O[C@H]2C[C@@](C)(OC)[C@@H](O)[C@H](C)O2)[C@H](C)[C@@H](O[C@@H]2O[C@H](C)C[C@H](N(C)C)[C@H]2O)[C@](C)(O)C[C@H]1C [Gamithromycin]
- minimum inhibitory concentration (isolate (source animal id): 3): ≤ 1 µg/mL
- minimum inhibitory concentration (isolate (source animal id): 4): ≤ 1 µg/mL
- minimum inhibitory concentration (isolate (source animal id): 7): ≤ 1 µg/mL
- minimum inhibitory concentration (isolate (source animal id): 14): ≤ 1 µg/mL
- minimum inhibitory concentration (isolate (source animal id): 15): ≤ 1 µg/mL
- minimum inhibitory concentration (isolate (source animal id): 17): ≤ 1 µg/mL
- minimum inhibitory concentration (isolate (source animal id): 18): ≤ 1 µg/mL
- minimum inhibitory concentration (isolate (source animal id): 20): ≤ 1 µg/mL
- minimum inhibitory concentration (isolate (source animal id): 23): ≤ 1 µg/mL
- minimum inhibitory concentration (isolate (source animal id): 45): ≤ 1 µg/mL
- minimum inhibitory concentration (isolate (source animal id): 53): ≤ 1 µg/mL
- minimum inhibitory concentration (isolate (source animal id): 83): ≤ 1 µg/mL
- minimum inhibitory concentration (isolate (source animal id): 88): ≤ 1 µg/mL
- minimum inhibitory concentration (isolate (source animal id): 92): ≤ 1 µg/mL
- minimum inhibitory concentration (isolate (source animal id): 93): ≤ 1 µg/mL
- minimum inhibitory concentration (isolate (source animal id): 99): ≤ 1 µg/mL
- minimum inhibitory concentration (isolate (source animal id): 100): ≤ 1 µg/mL
- minimum inhibitory concentration (isolate (source animal id): 105): ≤ 1 µg/mL
- minimum inhibitory concentration (isolate (source animal id): 107): ≤ 1 µg/mL
- minimum inhibitory concentration (isolate (source animal id): 108): ≤ 1 µg/mL
- minimum inhibitory concentration (isolate (source animal id): 109): ≤ 1 µg/mL
- minimum inhibitory concentration (isolate (source animal id): 110): ≤ 1 µg/mL
- minimum inhibitory concentration (isolate (source animal id): 117): ≤ 1 µg/mL
- minimum inhibitory concentration (isolate (source animal id): 121): ≤ 1 µg/mL
- minimum inhibitory concentration (isolate (source animal id): 123): ≤ 1 µg/mL
- minimum inhibitory concentration (isolate (source animal id): 124): ≤ 1 µg/mL
- minimum inhibitory concentration (isolate (source animal id): 127): ≤ 1 µg/mL
- minimum inhibitory concentration (isolate (source animal id): 128): ≤ 1 µg/mL
- minimum inhibitory concentration (isolate (source animal id): 130): 4 µg/mL (≈ 5.15 µM)
- minimum inhibitory concentration (isolate (source animal id): 132): ≤ 1 µg/mL
- minimum inhibitory concentration (isolate (source animal id): 135): ≤ 1 µg/mL
- minimum inhibitory concentration (isolate (source animal id): 140): ≤ 1 µg/mL
- minimum inhibitory concentration (isolate (source animal id): 141): ≤ 1 µg/mL
- minimum inhibitory concentration (isolate (source animal id): 142): > 8 µg/mL
- minimum inhibitory concentration (isolate (source animal id): 144): ≤ 1 µg/mL
- minimum inhibitory concentration (isolate (source animal id): 146): 4 µg/mL (≈ 5.15 µM)
- minimum inhibitory concentration (isolate (source animal id): 147): > 8 µg/mL
- minimum inhibitory concentration (isolate (source animal id): 151): ≤ 1 µg/mL
- minimum inhibitory concentration (isolate (source animal id): 153): ≤ 1 µg/mL
- minimum inhibitory concentration (isolate (source animal id): 154): > 8 µg/mL
- minimum inhibitory concentration (isolate (source animal id): 156): > 8 µg/mL
- minimum inhibitory concentration (isolate (source animal id): 157): ≤ 1 µg/mL
- minimum inhibitory concentration (isolate (source animal id): 176): ≤ 1 µg/mL
- minimum inhibitory concentration (isolate (source animal id): 183): ≤ 1 µg/mL
- minimum inhibitory concentration (isolate (source animal id): 186): ≤ 1 µg/mL
- minimum inhibitory concentration (isolate (source animal id): 196): ≤ 1 µg/mL
- minimum inhibitory concentration (isolate (source animal id): 198): ≤ 1 µg/mL
- minimum inhibitory concentration (isolate (source animal id): 200): ≤ 1 µg/mL
- minimum inhibitory concentration (isolate (source animal id): 206): ≤ 1 µg/mL
- minimum inhibitory concentration (isolate (source animal id): 208): ≤ 1 µg/mL
- minimum inhibitory concentration (isolate (source animal id): 210): ≤ 1 µg/mL
- minimum inhibitory concentration (isolate (source animal id): 212): ≤ 1 µg/mL
- minimum inhibitory concentration (isolate (source animal id): 215): ≤ 1 µg/mL
- minimum inhibitory concentration (isolate (source animal id): 216): ≤ 1 µg/mL
- minimum inhibitory concentration (isolate (source animal id): 218): ≤ 1 µg/mL
- minimum inhibitory concentration (isolate (source animal id): 219): ≤ 1 µg/mL
- minimum inhibitory concentration (isolate (source animal id): 224): ≤ 1 µg/mL
- minimum inhibitory concentration (isolate (source animal id): 228): ≤ 1 µg/mL
- minimum inhibitory concentration (isolate (source animal id): 230): ≤ 1 µg/mL
- minimum inhibitory concentration (isolate (source animal id): 233): ≤ 1 µg/mL
- minimum inhibitory concentration (isolate (source animal id): 238): ≤ 1 µg/mL
- minimum inhibitory concentration (isolate (source animal id): 239): ≤ 1 µg/mL
- minimum inhibitory concentration (isolate (source animal id): 241): ≤ 1 µg/mL
- minimum inhibitory concentration (isolate (source animal id): 242): ≤ 1 µg/mL
- minimum inhibitory concentration (isolate (source animal id): 243): ≤ 1 µg/mL
- minimum inhibitory concentration (isolate (source animal id): 245): ≤ 1 µg/mL
- minimum inhibitory concentration (isolate (source animal id): 246): ≤ 1 µg/mL
- minimum inhibitory concentration (isolate (source animal id): 247): ≤ 1 µg/mL
- minimum inhibitory concentration (isolate (source animal id): 248): ≤ 1 µg/mL
- minimum inhibitory concentration (isolate (source animal id): 250): ≤ 1 µg/mL
- minimum inhibitory concentration (isolate (source animal id): 251): ≤ 1 µg/mL
- minimum inhibitory concentration (isolate (source animal id): 252): ≤ 1 µg/mL
- minimum inhibitory concentration (isolate (source animal id): 254): ≤ 1 µg/mL
- minimum inhibitory concentration (isolate (source animal id): 258): ≤ 1 µg/mL
- minimum inhibitory concentration (isolate (source animal id): 259): ≤ 1 µg/mL
- minimum inhibitory concentration (isolate (source animal id): 262): ≤ 1 µg/mL
- minimum inhibitory concentration (isolate (source animal id): 264): ≤ 1 µg/mL
- minimum inhibitory concentration (isolate (source animal id): 265): ≤ 1 µg/mL
- minimum inhibitory concentration (isolate (source animal id): 266): ≤ 1 µg/mL
- minimum inhibitory concentration (isolate (source animal id): 267): ≤ 1 µg/mL
- minimum inhibitory concentration (isolate (source animal id): 269): ≤ 1 µg/mL
- minimum inhibitory concentration (isolate (source animal id): 271): ≤ 1 µg/mL
- minimum inhibitory concentration (isolate (source animal id): 272): ≤ 1 µg/mL
- minimum inhibitory concentration (isolate (source animal id): 274): ≤ 1 µg/mL
- minimum inhibitory concentration (isolate (source animal id): 276): ≤ 1 µg/mL
- minimum inhibitory concentration (isolate (source animal id): 278): ≤ 1 µg/mL
- minimum inhibitory concentration (isolate (source animal id): 280): ≤ 1 µg/mL
- minimum inhibitory concentration (isolate (source animal id): 281): ≤ 1 µg/mL
- minimum inhibitory concentration (isolate (source animal id): 283): ≤ 1 µg/mL
- minimum inhibitory concentration (isolate (source animal id): 288): ≤ 1 µg/mL
- minimum inhibitory concentration (isolate (source animal id): 291): ≤ 1 µg/mL
- minimum inhibitory concentration (isolate (source animal id): 292): ≤ 1 µg/mL
- minimum inhibitory concentration (isolate (source animal id): 296): ≤ 1 µg/mL
- minimum inhibitory concentration (isolate (source animal id): 306): ≤ 1 µg/mL
- minimum inhibitory concentration (isolate (source animal id): 336): ≤ 1 µg/mL
- minimum inhibitory concentration (isolate (source animal id): 337): ≤ 1 µg/mL
- minimum inhibitory concentration (isolate (source animal id): 341): ≤ 1 µg/mL
